The subject of one data set is U373 cells. Kind of data set: Determination of cell adhesion (cell detachment assay with Methyl violet). The class given is cell-based, human. Particulars: for effect on cell adhesion; additives: effect on the Octenisept® induced reduction: U373, 1 hour, Octenisept® alone or 1:1 with additive 5%, 5 μl to 100 μl medium, FIG. 3. The protocol:
The humane glioblastoma cell line U373 was cultured in Dulbecco's Modified Eagle Medium (DMEM) supplemented with 10% PCS (Gibco™), 2 mM glutamine (PPA) and 100 U/ml penicillin/streptomycin (PAA) at 37° and 5% CO2. The cells were cultivated in monolayer and passaged at 80% confluence. Before carrying out the cell adhesion experiments the cells were transferred onto 96-well plates and brought to confluence.
Cell adhesion was carried out as described in detail in the quotation (Uchide, N. and Toyoda H., (2007) J Immunol Methods, 328 (1-2): 215-9). U373 cells were incubated in 96-well plates with Octenisept® (final concentration 5% (v/v) Octenisept®, this equates 0.005% octenidine dihydrochloride) alone or with the specified additives (5% v/v) for 1 hour in glucose-free Leibovitz medium. After removing the supernatant the standardized washing procedure was executed 3 times after which PBS was added with a motor-controlled pipet which led to the detachment of non-adhesive cells. Afterward only those cells whose matrix had formed a solid connection were fixed with glutaraldehyde and after removal of the glutaraldehyde stained with Methyl violet. The precipitated stain was dissolved with an SDS buffer and the extinction was measured at 550 nm in an ELISA plate reader.
It was now examined whether this additive ensures effects which can contribute to the improvement of wound healing. U373 cells were incubated for 1 hour in Leibovitz medium with Octenisept® alone or with additives (1:1 with glucose 5% or NaCl 0.9%). In each case 5 μl of the respective solution was added to 100 μl of medium. After washing and staining of the adherent cells with crystal violet the extinction was measured at 550 nm (FIG. 2a). The extinction of the controls was set to 1. Statistical significances were determined with Bonferroni's Multiple Comparison Test (**: p<0.01, ***<0.001).
Polyalcohols form a broad compound class and it was therefore examined whether single subgroups have different effects in the adhesion test. U373 cells were incubated in Leibovitz medium with 5 μl additive to 100 μl medium in each case for 1 hour with Octenisept® alone (−) or with additives (1:1 with polyalcohol 5%, glucose, 2-deoxyglucose (2-deoxyG.), lactose, saccharose, fructose, glucuronic acid, polyethylene glycol (PEG), chondroitin-4-sulfate (ch.4-s.), chondroitin-6-sulfate (ch.-6-s.) dermatan sulfate (dermatan-s.) or dextran sulfate (dextran-s.)). After washing and staining of the adherent cells with Methyl violet the extinction was measured at 550 nm. (Bars represent the mean value±SD of two independent experiments (measured in triplicates)). The extinction of the controls was set to 1. Statistical significances were determined with Bonferroni's Multiple Comparison Test (**: p<0.01, ***<0.001).
U373 cells were incubated for one hour with Octenisept® (1:20 in medium) alone (G0) or with Octenisept® and different volumes of a 5% glucose solution (resulting final dilution 1:200-1:2 in Leibovitz medium).

Data set [1] is described as follows: Precipitation assay of Octenisept® with NaCl or carbohydrates. Format: physicochemical. As to conditions: equal parts Octenisept® and diluent (5%), 4° C. The protocol: The stability of the solubility of the components of Octenisept® in NaCl solution as an indicator for their interaction was determined through the analysis of the precipitates. After the co-incubation of Octenisept® with equal parts of 0.9% w/v NaCl or 5% carbohydrates in sterile aqua bidest for 3, 12, 24 and 72 hours at 4° C. the solutions were centrifuged at 2500 rpm for 5 minutes and the precipitate, if existing, was analyzed with the Zeiss inverted microscope with a digital camera with the METAVIEW micro-photography documentation system.

The mark [2] stands for this setting: concentration series with glucose, FIG. 4.

“Also recorded” adds a separate entry of the source.

Consider `O=CC[C@@H](O)[C@H](O)[C@H](O)CO` [2-deoxyglucose], for which the “effect on cell adhesion; additives: effect on the Octenisept® induced reduction” value (“effect … on the Octenisept® induced reduction” below) in the data set on U373 cells is listed as “improved”.
The same measure, in the same setting: the same measure for `O=C(CO)[C@@H](O)[C@H](O)[C@H](O)CO` [fructose]: “improved”.
For `O=C[C@H](O)[C@@H](O)[C@H](O)[C@H](O)CO` [glucose], the “effect of glucose addition on Octenisept® reduced cell adherence” value in the data set on U373 cells (5% glucose solution, final dilution 1:200 or 1:100, FIG. 4) is recorded as “tendentially improved”. The “effect … on the Octenisept® induced reduction” value in the data set on U373 cells is reported as “improved”. In the data set on U373 cells (setting [2]), the “optimal glucose addition, final concentration” value is listed as 0.1% and the “optimal glucose addition, in the stock solution” value was 2%. Moreover, the “optimal absolute glucose in the Octenisept solution” value in the data set on U373 cells (corresponds to dilution 1:20 of 5% glucose) turned out to be 0.25%.
`O=C[C@H](O)[C@@H](O)[C@H](O)[C@H](O)C(=O)O` [glucuronic acid]: the figures for the “effect … on the Octenisept® induced reduction” value in the data set with U373 cells and with U373 cells (listed as Glucuronic acid) were “improved” and “positive effect”, respectively.
As for `OC[C@H]1O[C@@H](O[C@H]2[C@H](O)[C@@H](O)C(O)O[C@@H]2CO)[C@H](O)[C@@H](O)[C@H]1O` (some centres unmarked) [lactose], the “effect … on the Octenisept® induced reduction” value with U373 cells is “improved”.
With `OC[C@H]1O[C@@](CO)(O[C@H]2O[C@H](CO)[C@@H](O)[C@H](O)[C@H]2O)[C@@H](O)[C@@H]1O` [saccharose], the “effect … on the Octenisept® induced reduction” value in the data set with U373 cells is “improved; also recorded: without impairing the effect”.
chondroitin sulfate: the “sediment / crystals / turbidity of Octenisept® mixed with diluent” value (“sediment / crystals / turbidity” below) in data set [1] is “quick micro-crystalline or colloidal turbidity”.
Consider chondroitin-4-sulfate, for which the “effect … on the Octenisept® induced reduction” value with U373 cells was “significantly reduced the adhesion to under the values of NaCl”.
For the molecule chondroitin-6-sulfate, the “effect … on the Octenisept® induced reduction” value in the data set on U373 cells was “significantly reduced the adhesion to under the values of NaCl”.
With dermatan sulfate, the “sediment / crystals / turbidity” value in data set [1] was “quick micro-crystalline or colloidal turbidity”. The “effect … on the Octenisept® induced reduction” value in the data set on U373 cells is “significantly reduced the adhesion to under the values of NaCl”.
In the case of dextran sulfate, the “effect … on the Octenisept® induced reduction” value in the data set with U373 cells is given as “significantly reduced the adhesion to under the values of NaCl”.
Regarding heparan sulfate, the “sediment / crystals / turbidity” value in data set [1] is “quick micro-crystalline or colloidal turbidity”.
polyethylene glycol: the “effect … on the Octenisept® induced reduction” value in the data set with U373 cells was “improved”; in the data set on U373 cells (listed as PEG) it was “slight reduction of the positive effect”.
